Assay results published in ChEMBL document CHEMBL4602665, “Amphiepicoccins A-J: Epipolythiodioxopiperazines from the Fish-Gill-Derived Fungus Epicoccum nigrum HDN17-88” (J Nat Prod, 2020).
Converted amounts (≈) assume the structure as drawn.

Each molecule was assayed on Bacillus subtilis (assay: Growth inhibition of Bacillus subtilis). Settings: not given.
Format: functional

| MIC | Structure (SMILES) |
| --- | --- |
| 25 µM (≈ 11.7 µg/mL) | CO[C@H]1CC(=O)[C@@H]2C[C@@]3(SC)C(=O)N4[C@@H]5[C@@H](O)[C@H]6CC(=O)[C@@H]5C[C@@]4(S6)C(=O)N3[C@@H]2[C@H]1O |
| 13 µM (≈ 6.51 µg/mL) | CO[C@H]1CC(=O)[C@@H]2C[C@@]3(SC)C(=O)N4[C@@H]5[C@@H](O)[C@H]6CC(=O)[C@@H]5C[C@@]4(SS6)C(=O)N3[C@@H]2[C@H]1O |

The molecules below were run on Human alphaherpesvirus 2 (assay: Antiviral activity against Herpes simplex virus 2 infected in African green monkey Vero cells assessed as inhibition of virus-induced cytopathogenic effect after 24 hrs by crystal violet staining based assay). Settings: Human alphaherpesvirus 2, Vero.
Format: functional, organism-based

| Structure (SMILES) | IC50 |
| --- | --- |
| CO[C@H]1CC(=O)[C@@H]2C[C@@]3(SC)C(=O)N4[C@@H]5[C@@H](O)[C@H]6CC(=O)[C@@H]5C[C@@]4(S6)C(=O)N3[C@@H]2[C@H]1O | 29 µM |
| CS[C@@]12C[C@H]3C(=O)C=C[C@H](O)[C@H]3N1C(=O)[C@@]13C[C@H]4C(=O)C[C@@H](SS1)[C@H](O)[C@H]4N3C2=O | 64 µM |

The next lines start with the values.

| IC50 | Structure (SMILES) |
| --- | --- |
| 70 µM | O=C1C[C@H]2SS[C@@]34C[C@@H]1[C@@H]([C@H]2O)N3C(=O)c1cc2cc(O)ccc2n1C4=O |
| 31 µM | Nc1nc2c(ncn2COCCO)c(=O)[nH]1 [ACYCLOVIR] |
